Where two headings read alike, the source gives them in different places.
What was measured:
[1] = Experimental maximum plasma concentration of digoxin in patients by MDR1 exon 26 (C3435T) polymorphism; format: in vivo, human; settings: type TT versus wild type
From the text: The transport protein which has been most widely studied and described in the literature is p-glycoprotein (P-Gp) which, besides other organs, is expressed particularly in the gut where it can have an influence on the absorption of orally applied active agents. The associated gene is generally identified as MDR1. MDR1 may be present in different alleles, it being known that these lead to different activity of the associated protein (see Martin F. Fromm, The influence of MDR1 polymorphisms on P-glycoprotein expression and function in humans, Advanced Drug Delivery Reviews 54, 1295 (2002)). For P-Gp, tables of pharmaceutical active agents which are a substrate for it have been published (see for example C. J. Matheny et al., Pharmacokinetic and Pharmacodynamic Implications of P-glycoprotein Modulation, Pharmacotherapy, 21, 778 (2001)). One example of such a substrate is digoxin.
For instance, the Cmax values (maximum plasma concentration) listed in Table 1 are given for the polymorphism in exon 26 (C3435T).

[2] = human
[3] = 0.25 mg digoxin, cited from earlier work

With `C[C@H]1O[C@@H](O[C@H]2[C@@H](O)C[C@H](O[C@H]3[C@@H](O)C[C@H](O[C@H]4CC[C@@]5(C)[C@H](CC[C@@H]6[C@@H]5C[C@@H](O)[C@]5(C)[C@@H](C7=CC(=O)OC7)CC[C@]65O)C4)O[C@@H]3C)O[C@@H]2C)C[C@H](O)[C@@H]1O` [digoxin] the “experimentally found increase of Cmax” value [1] was 30%, the clearance [2] was 0.48 mL/min/kg and the Papp ([2]; not told) was 1.4 ×10⁻⁶ cm/s. The fraction unbound ([2]; plasma) was 0.73, the Cmax experiment ([3]; patients with CC (wild type) polymorphism in exon 26 (C3435T) of MDR1, plasma) was 1.6 ng/mL and the Cmax experiment ([3]; patients with TT (homozygotic) polymorphism in exon 26 (C3435T) of MDR1, plasma) was 2.1 ng/mL.

Reference: patent US20050074803A1, “Method for determining an active agent dose” (Bayer Technology Services GmbH, priority 2003, published 2005)
